PubChem BioAssay AID1259407 (Chemical Carcinogenesis Research Information System (CCRIS), 2018)
Calls of active or inactive are those of the source. The rule behind the calls is not given here.

Tested on: CCRIS mutagenicity, Ames/micronucleus/aberration tests
Test: CCRIS mutagenicity studies
[1] = Test System: AMES SALMONELLA TYPHIMURIUM, Strain/Indicator: TA98, Metabolic Activation: NONE, Method: PREINCUBATION
[2] = Test System: AMES SALMONELLA TYPHIMURIUM, Strain/Indicator: TA98, Metabolic Activation: RAT, LIVER, S-9, PHENOBARBITAL AND 5,6-BENZOFLAVONE, Method: PREINCUBATION
[3] = Test System: AMES SALMONELLA TYPHIMURIUM, Strain/Indicator: TA100, Metabolic Activation: RAT, LIVER, S-9, PHENOBARBITAL AND 5,6-BENZOFLAVONE, Method: PREINCUBATION
[4] = Test System: AMES SALMONELLA TYPHIMURIUM, Strain/Indicator: TA98, Metabolic Activation: NONE, Method: STANDARD PLATE
[5] = Test System: AMES SALMONELLA TYPHIMURIUM, Strain/Indicator: TA100, Metabolic Activation: NONE, Method: STANDARD PLATE
[6] = Test System: AMES SALMONELLA TYPHIMURIUM, Strain/Indicator: TA1535, Metabolic Activation: NONE, Method: STANDARD PLATE
[7] = Test System: AMES SALMONELLA TYPHIMURIUM, Strain/Indicator: TA1537, Metabolic Activation: NONE, Method: STANDARD PLATE
[8] = Test System: AMES SALMONELLA TYPHIMURIUM, Strain/Indicator: TA1538, Metabolic Activation: NONE, Method: STANDARD PLATE
[9] = Test System: AMES SALMONELLA TYPHIMURIUM, Strain/Indicator: TA98, Metabolic Activation: RAT, LIVER, S-9, AROCLOR 1254, Method: STANDARD PLATE

For COC(=O)C1=C(C)NC(C)=C(C(=O)OC/C=C/c2ccccc2)C1c1cccc([N+](=O)[O-])c1 (stereo not drawn), the mutagenic call [1] was “inactive; negative”, the mutagenic call [2] was “inactive; negative” and the mutagenic call (Test System: AMES SALMONELLA TYPHIMURIUM, Strain/Indicator: TA100, Metabolic Activation: NONE, Method: PREINCUBATION) was “inactive; negative”. The mutagenic call [3] was “inactive; negative”, the mutagenic call (Test System: AMES SALMONELLA TYPHIMURIUM, Strain/Indicator: TA1535, Metabolic Activation: NONE, Method: PREINCUBATION) was “inactive; negative” and the mutagenic call (Test System: AMES SALMONELLA TYPHIMURIUM, Strain/Indicator: TA1535, Metabolic Activation: RAT, LIVER, S-9, PHENOBARBITAL AND 5,6-BENZOFLAVONE, Method: PREINCUBATION) was “inactive; negative”. The mutagenic call (Test System: AMES SALMONELLA TYPHIMURIUM, Strain/Indicator: TA1537, Metabolic Activation: NONE, Method: PREINCUBATION) was “inactive; negative”, the mutagenic call (Test System: AMES SALMONELLA TYPHIMURIUM, Strain/Indicator: TA1537, Metabolic Activation: RAT, LIVER, S-9, PHENOBARBITAL AND 5,6-BENZOFLAVONE, Method: PREINCUBATION) was “inactive; negative” and the mutagenic call (Test System: E. COLI, Strain/Indicator: WP2 UVRA, Metabolic Activation: NONE, Method: PREINCUBATION) was “inactive; negative”. The mutagenic call (Test System: E. COLI, Strain/Indicator: WP2 UVRA, Metabolic Activation: RAT, LIVER, S-9, PHENOBARBITAL AND 5,6-BENZOFLAVONE, Method: PREINCUBATION) was “inactive; negative”.
Nc1ccn([C@@H]2C=C(CO)[C@@H](O)[C@H]2O)c(=O)n1 was tested, and the mutagenic call (Test System: AMES SALMONELLA TYPHIMURIUM, Strain/Indicator: TA98, Metabolic Activation: HAMSTER, LIVER, S-9, AROCLOR 1254 (10%), Method: STANDARD PLATE) was “inactive; negative”, the mutagenic call [4] was “inactive; negative” and the mutagenic call (Test System: AMES SALMONELLA TYPHIMURIUM, Strain/Indicator: TA98, Metabolic Activation: RAT, LIVER, S-9, AROCLOR 1254 (10%), Method: STANDARD PLATE) was “inactive; negative”. The mutagenic call (Test System: AMES SALMONELLA TYPHIMURIUM, Strain/Indicator: TA100, Metabolic Activation: HAMSTER, LIVER, S-9, AROCLOR 1254 (10%), Method: STANDARD PLATE) was “inactive; negative”, the mutagenic call [5] was “inactive; negative” and the mutagenic call (Test System: AMES SALMONELLA TYPHIMURIUM, Strain/Indicator: TA100, Metabolic Activation: RAT, LIVER, S-9, AROCLOR 1254 (10%), Method: STANDARD PLATE) was “inactive; negative”. For the same molecule, the mutagenic call (Test System: AMES SALMONELLA TYPHIMURIUM, Strain/Indicator: TA1535, Metabolic Activation: HAMSTER, LIVER, S-9, AROCLOR 1254 (10%), Method: STANDARD PLATE) was “inactive; negative”, the mutagenic call [6] was “inactive; negative” and the mutagenic call (Test System: AMES SALMONELLA TYPHIMURIUM, Strain/Indicator: TA1535, Metabolic Activation: RAT, LIVER, S-9, AROCLOR 1254 (10%), Method: STANDARD PLATE) was “inactive; negative”. For the same molecule, the mutagenic call (Test System: AMES SALMONELLA TYPHIMURIUM, Strain/Indicator: TA1537, Metabolic Activation: HAMSTER, LIVER, S-9, AROCLOR 1254 (10%), Method: STANDARD PLATE) was “inactive; negative”, the mutagenic call [7] was “inactive; negative” and the mutagenic call (Test System: AMES SALMONELLA TYPHIMURIUM, Strain/Indicator: TA1537, Metabolic Activation: RAT, LIVER, S-9, AROCLOR 1254 (10%), Method: STANDARD PLATE) was “inactive; negative”. For the same molecule, the mutagenic call (Test System: AMES SALMONELLA TYPHIMURIUM, Strain/Indicator: TA1538, Metabolic Activation: HAMSTER, LIVER, S-9, AROCLOR 1254 (10%), Method: STANDARD PLATE) was “inactive; negative”, the mutagenic call [8] was “inactive; negative” and the mutagenic call (Test System: AMES SALMONELLA TYPHIMURIUM, Strain/Indicator: TA1538, Metabolic Activation: RAT, LIVER, S-9, AROCLOR 1254 (10%), Method: STANDARD PLATE) was “inactive; negative”. The mutagenic call (Test System: MOUSE LYMPHOMA, Strain/Indicator: L5178Y (TK+/TK-), Metabolic Activation: RAT, LIVER, S-9, AROCLOR 1254, Method: SUSPENSION/PLATE) was “active; positive. reevaluation of results: positive” and the mutagenic call (Test System: Mouse lymphoma, Strain/Indicator: L5178Y (tk+/tk-), Metabolic Activation: None, Method: Suspension/plate) was “active; positive”.
O=c1c2cc(O)ccc2oc2cc(O)cc(O)c12 was tested, and the mutagenic call (Test System: AMES SALMONELLA TYPHIMURIUM, Strain/Indicator: TA97, Metabolic Activation: RAT, LIVER, S-9, PHENOBARBITAL AND 5,6-BENZOFLAVONE, Method: PREINCUBATION) was “active; positive”, the mutagenic call [2] was “inactive; negative” and the mutagenic call [3] was “active; positive”. The mutagenic call (Test System: AMES SALMONELLA TYPHIMURIUM, Strain/Indicator: TA2637, Metabolic Activation: RAT, LIVER, S-9, PHENOBARBITAL AND 5,6-BENZOFLAVONE, Method: PREINCUBATION) was “active; positive”.
With C=C(C)C(=O)OCC(C)(C)COC(=O)C(=C)C the mutagenic call [4] was “inactive; negative”, the mutagenic call [9] was “inactive; negative” and the mutagenic call (Test System: AMES SALMONELLA TYPHIMURIUM, Strain/Indicator: TA98, Metabolic Activation: RAT, LIVER, S-9, SODIUM PHENOBARBITAL, Method: STANDARD PLATE) was “inactive; negative”. For the same molecule, the mutagenic call [5] was “inactive; negative”, the mutagenic call (Test System: AMES SALMONELLA TYPHIMURIUM, Strain/Indicator: TA100, Metabolic Activation: RAT, LIVER, S-9, AROCLOR 1254, Method: STANDARD PLATE) was “inactive; negative” and the mutagenic call (Test System: AMES SALMONELLA TYPHIMURIUM, Strain/Indicator: TA100, Metabolic Activation: RAT, LIVER, S-9, SODIUM PHENOBARBITAL, Method: STANDARD PLATE) was “inactive; negative”. The mutagenic call [6] was “inactive; negative”, the mutagenic call (Test System: AMES SALMONELLA TYPHIMURIUM, Strain/Indicator: TA1535, Metabolic Activation: RAT, LIVER, S-9, AROCLOR 1254, Method: STANDARD PLATE) was “inactive; negative” and the mutagenic call (Test System: AMES SALMONELLA TYPHIMURIUM, Strain/Indicator: TA1535, Metabolic Activation: RAT, LIVER, S-9, SODIUM PHENOBARBITAL, Method: STANDARD PLATE) was “inactive; negative”. For the same molecule, the mutagenic call [7] was “inactive; negative”, the mutagenic call (Test System: AMES SALMONELLA TYPHIMURIUM, Strain/Indicator: TA1537, Metabolic Activation: RAT, LIVER, S-9, AROCLOR 1254, Method: STANDARD PLATE) was “inactive; negative” and the mutagenic call (Test System: AMES SALMONELLA TYPHIMURIUM, Strain/Indicator: TA1537, Metabolic Activation: RAT, LIVER, S-9, SODIUM PHENOBARBITAL, Method: STANDARD PLATE) was “inactive; negative”. The mutagenic call [8] was “inactive; negative”, the mutagenic call (Test System: AMES SALMONELLA TYPHIMURIUM, Strain/Indicator: TA1538, Metabolic Activation: RAT, LIVER, S-9, AROCLOR 1254, Method: STANDARD PLATE) was “inactive; negative” and the mutagenic call (Test System: AMES SALMONELLA TYPHIMURIUM, Strain/Indicator: TA1538, Metabolic Activation: RAT, LIVER, S-9, SODIUM PHENOBARBITAL, Method: STANDARD PLATE) was “inactive; negative”.
In the case of c1ccc2c(c1)sc1ccccc12, the mutagenic call (Test System: CHINESE HAMSTER OVARY, Strain/Indicator: CHO-K1-BH4 (HGPRT)/6-THIOGUANINE, Metabolic Activation: RAT, LIVER, S-9, AROCLOR (4%)) was “inactive; negative”.
With O=[N+]([O-])c1ccc2ccc3c([N+](=O)[O-])c4ccccc4c4ccc1c2c34 the mutagenic call (Test System: AMES SALMONELLA TYPHIMURIUM, Strain/Indicator: TA98(1,8-DNP6), Metabolic Activation: NONE) was “active; positive”, the mutagenic call (Test System: AMES SALMONELLA TYPHIMURIUM, Strain/Indicator: TA98(NR), Metabolic Activation: NONE) was “active; positive” and the mutagenic call (Test System: AMES SALMONELLA TYPHIMURIUM, Strain/Indicator: TA98(NR), Metabolic Activation: NONE, Method: PREINCUBATION) was “active; positive”. The mutagenic call (Test System: AMES SALMONELLA TYPHIMURIUM, Strain/Indicator: TA98, Metabolic Activation: NONE) was “active; positive”, the mutagenic call [1] was “active; positive” and the mutagenic call [4] was “active; positive”. For the same molecule, the mutagenic call [5] was “active; positive”.
With C=CCN(CC=C)c1cc(NC(C)=O)c(N=Nc2c(Br)cc([N+](=O)[O-])cc2[N+](=O)[O-])cc1OC the mutagenic call [4] was “inactive; negative”, the mutagenic call [9] was “active; positive” and the mutagenic call (Test System: AMES SALMONELLA TYPHIMURIUM, Strain/Indicator: YG1041, Metabolic Activation: NONE, Method: STANDARD PLATE) was “active; positive”. The mutagenic call (Test System: AMES SALMONELLA TYPHIMURIUM, Strain/Indicator: YG1041, Metabolic Activation: RAT, LIVER, S-9, AROCLOR 1254, Method: STANDARD PLATE) was “active; positive”.
